Consider two compounds from US12239640B2, “Use of miloxacin in preparation of medicines for treating and/or preventing diseases with T-type calcium channels as therapeutic target” (SOOCHOW UNIVERSITY, priority 2020, dated 2025).

Experiment [1] relates to CCI-ION model rats. Briefly: Facial pain threshold of trigeminal neuropathic pain (CCI-ION) model rats (von Frey). The class given is in vivo, rat. Conditions: day 14 after model; for effect on facial pain threshold (mechanical hyperalgesia), CCI-ION model: at 3 h. The procedure: Adult healthy male SD rats weighed 200-250 g were used. Before the experiment, the animals were allowed to acclimate to the breeding environment for three days. The rats were anesthetized with 4% chloral hydrate at an injection dose of 1 ml/100 g body weight. The tongue of the anesthetized rat in a supine position was pulled out and to the right to expose the left side of the mouth. At the level of the left maxillary first molar, a longitudinal incision of about 1 cm was cut along the gingival edge of the buccal aspect, and the tissue was bluntly isolated, to carefully expose the infraorbital nerve. The proximal and distal ends of the infraorbital nerve were loosely ligated with 5-0 suture, where the distance between the two ligatures was about 2 mm, and the tension was moderate. […] The process was the same as that in Example 4. It can be seen that CCI-ION can lower the facial pain threshold of rats. • 2. Effect of miloxacin on the facial pain threshold of CCI-ION model rats: 27 CCI-ION model rats obtained by the above method were divided into three groups, each having 9 rats. On day 14 after the CCI-ION model was established, 10 nmol miloxacin was locally injected into the trigeminal ganglion of rats in the first group, 5 nmol miloxacin was locally injected into the trigeminal ganglion of rats in the second group, and the corresponding solvent DMSO was locally injected into the trigeminal ganglion of rats in the third group. After 1 h, 3 h, 6 h, 9 h, 12 h, and 24 h, the facial pain threshold of each group was detected. […] Study on the analgesic mechanism of miloxacin in CCI-ION model rats: On day 14 after the CCI-ION model was established, 2 nmol TTA-P2 was locally injected into the trigeminal ganglion, and then 10 nmol miloxacin was locally injected into the trigeminal ganglion 30 min later, which was used as the TTA-P2 group. The other group was injected with the corresponding solvent DMSO, and then administered with 10 nmol miloxacin by local injection 30 min later, which was used as the solvent group.

Experiment [2] concerns CFA-induced inflammatory pain model rats. Nature of the experiment: Facial pain threshold of CFA-induced inflammatory pain model rats (von Frey). Conditions: day 2 after CFA; for effect on facial pain threshold (mechanical hyperalgesia), CFA model: at 3 h. The format is in vivo, rat. On the procedure:
Adult healthy male SD rats weighed 200-250 g were used. Before the experiment, the animals were allowed to acclimate to the breeding environment for three days. The model was established by a routine laboratory method. CFA was injected subcutaneously into the rat's facial whisker pad at a dose of 20 μl/mouse. Individuals with hyperalgesia and swelling of […] on day 2 after CFA injection were used as the experimental subjects, that is, the rats in the experiment group. Before the behavioral test, the rats were housed in a plexiglass box on a wire mesh frame to acclimate to the environment for three consecutive days, for 1 h each time. Test method: The middle part of the whisker pad was stimulated with von Frey filament at 1 g. If there were 3 escapes in 5 consecutive stimulations, the response was positive. Then, the same operation was repeated with von Frey filament at a lower level of intensity. If there was no positive response, the middle part of the whisker pad was stimulated with von Frey filament at a higher level of intensity. The minimum intensity at which a positive response occurs is taken as the facial pain threshold, that is, the facial mechanical pain threshold. It can be seen that CFA induction can lower the facial pain threshold of rats. • 3. Effect of miloxacin on the facial pain threshold of CFA-induced inflammatory pain model rats: 27 rats with CFA-induced inflammation obtained by the above method were divided into three groups, each having 9 rats. On day 2 after CFA induction, 10 nmol miloxacin was locally injected into the trigeminal ganglion of rats in the first group, 5 nmol miloxacin was locally injected into the trigeminal ganglion of rats in the second group, and the corresponding solvent DMSO was locally injected into the trigeminal ganglion of rats in the third group. After 1 h, 3 h, 6 h, 12 h, 18 h, and 24 h, the facial pain threshold of each group was detected. […] Study on the analgesic mechanism of miloxacin in CFA-induced inflammatory pain model rats: On day 2 after CFA induction, 2 nmol TTA-P2 was locally injected into the trigeminal ganglion, and then 10 nmol miloxacin was locally injected into the trigeminal ganglion after 30 min, which was used as the TTA-P2 group. The other group was injected with the corresponding solvent DMSO, and then administered with 10 nmol miloxacin by local injection 30 min later, which was used as the solvent group. TTA-P2 is a T-type calcium channel blocker, and the solvent for TTA-P2 is DMSO.

Experiment [3] concerns T-type calcium channel. Briefly: T-type calcium channel current in acutely dissociated primary rat trigeminal ganglion neurons. The format is cell-based. From the text:
Specifically, trigeminal ganglion neurons from adult male SD rats were acutely dissociated under the conditions of enzymatic hydrolysis of trigeminal ganglion neurons (Zhang Y et al., J Pineal Res, 2018, 64, e12476).
The trigeminal ganglia of male SD rats weighed about 220 g were exposed after anesthesia. The bilateral trigeminal ganglia were taken by using microscopic dissecting forceps, removed of their fiber connections, and then immediately placed in ice-cold oxygenated DMEM medium. The trigeminal ganglion in the culture medium was transferred into 3 mg/ml collagenase digestion solution, cut into pieces with microscissors, and digested at 37° C. for 45 min, and then digested in 2 mg/ml trypsin digestion solution for another 15 min. After the above operations, the digestion was terminated by adding DMEM medium containing 10% fetal bovine serum. The cells were dispersed by repeatedly pipetting, and filtered through a 40 μm cell sieve. The resulting suspension was centrifuged at 800 rpm for 3 min. After centrifugation, the supernatant was discarded, and the cell pellet was resuspended in DMEM medium. After resuspension, the cell suspension was seeded on a cover glass pre-coated with polylysine in a 24-well culture plate, and placed in an incubator at 37° C. with 5% CO2 for later use.
The process was the same as that in Example 1. […]

Experiment [4] relates to trigeminal ganglion neurons. Briefly: Firing of neuronal action potential in acutely dissociated rat trigeminal ganglion neurons (current clamp). The format is cell-based. The settings on record: 10 μM miloxacin, 180 pA for 1 sec; control 13.3±1.5. The procedure:
The process was the same as that in Example 2. At room temperature, Multiclamp 700B amplifier was used for whole-cell current clamp recording. A current of 180 pA was injected into the cell for 1 sec to stabilize the cell at −70 mV, and the frequency of the generated action potential was recorded. Internal pipette solution: 10 sodium chloride, 110 potassium chloride, 2 EGTA, 25 HEPES, 0.5 sodium-GTP, 4 magnesium-ATP. External pipette solution: 2 potassium chloride, 128 sodium chloride, 2 calcium chloride, 2 magnesium chloride, 30 glucose, 25 HEPES. The unit is mM, that is, millimoles/liter. 10 μM miloxacin was directly administered to the T-type calcium channel in the trigeminal ganglion neurons as the treatment group. The groups before miloxacin administration were used as control groups.

For experiment [5], the target named is T1, T-type calcium channel subtype Cav3.2 (Homo sapiens, UniProt O95180).
T1 construct: expressed in transfected cells; host or cells: HEK293 cells
T1 sequence (O95180 whole entry): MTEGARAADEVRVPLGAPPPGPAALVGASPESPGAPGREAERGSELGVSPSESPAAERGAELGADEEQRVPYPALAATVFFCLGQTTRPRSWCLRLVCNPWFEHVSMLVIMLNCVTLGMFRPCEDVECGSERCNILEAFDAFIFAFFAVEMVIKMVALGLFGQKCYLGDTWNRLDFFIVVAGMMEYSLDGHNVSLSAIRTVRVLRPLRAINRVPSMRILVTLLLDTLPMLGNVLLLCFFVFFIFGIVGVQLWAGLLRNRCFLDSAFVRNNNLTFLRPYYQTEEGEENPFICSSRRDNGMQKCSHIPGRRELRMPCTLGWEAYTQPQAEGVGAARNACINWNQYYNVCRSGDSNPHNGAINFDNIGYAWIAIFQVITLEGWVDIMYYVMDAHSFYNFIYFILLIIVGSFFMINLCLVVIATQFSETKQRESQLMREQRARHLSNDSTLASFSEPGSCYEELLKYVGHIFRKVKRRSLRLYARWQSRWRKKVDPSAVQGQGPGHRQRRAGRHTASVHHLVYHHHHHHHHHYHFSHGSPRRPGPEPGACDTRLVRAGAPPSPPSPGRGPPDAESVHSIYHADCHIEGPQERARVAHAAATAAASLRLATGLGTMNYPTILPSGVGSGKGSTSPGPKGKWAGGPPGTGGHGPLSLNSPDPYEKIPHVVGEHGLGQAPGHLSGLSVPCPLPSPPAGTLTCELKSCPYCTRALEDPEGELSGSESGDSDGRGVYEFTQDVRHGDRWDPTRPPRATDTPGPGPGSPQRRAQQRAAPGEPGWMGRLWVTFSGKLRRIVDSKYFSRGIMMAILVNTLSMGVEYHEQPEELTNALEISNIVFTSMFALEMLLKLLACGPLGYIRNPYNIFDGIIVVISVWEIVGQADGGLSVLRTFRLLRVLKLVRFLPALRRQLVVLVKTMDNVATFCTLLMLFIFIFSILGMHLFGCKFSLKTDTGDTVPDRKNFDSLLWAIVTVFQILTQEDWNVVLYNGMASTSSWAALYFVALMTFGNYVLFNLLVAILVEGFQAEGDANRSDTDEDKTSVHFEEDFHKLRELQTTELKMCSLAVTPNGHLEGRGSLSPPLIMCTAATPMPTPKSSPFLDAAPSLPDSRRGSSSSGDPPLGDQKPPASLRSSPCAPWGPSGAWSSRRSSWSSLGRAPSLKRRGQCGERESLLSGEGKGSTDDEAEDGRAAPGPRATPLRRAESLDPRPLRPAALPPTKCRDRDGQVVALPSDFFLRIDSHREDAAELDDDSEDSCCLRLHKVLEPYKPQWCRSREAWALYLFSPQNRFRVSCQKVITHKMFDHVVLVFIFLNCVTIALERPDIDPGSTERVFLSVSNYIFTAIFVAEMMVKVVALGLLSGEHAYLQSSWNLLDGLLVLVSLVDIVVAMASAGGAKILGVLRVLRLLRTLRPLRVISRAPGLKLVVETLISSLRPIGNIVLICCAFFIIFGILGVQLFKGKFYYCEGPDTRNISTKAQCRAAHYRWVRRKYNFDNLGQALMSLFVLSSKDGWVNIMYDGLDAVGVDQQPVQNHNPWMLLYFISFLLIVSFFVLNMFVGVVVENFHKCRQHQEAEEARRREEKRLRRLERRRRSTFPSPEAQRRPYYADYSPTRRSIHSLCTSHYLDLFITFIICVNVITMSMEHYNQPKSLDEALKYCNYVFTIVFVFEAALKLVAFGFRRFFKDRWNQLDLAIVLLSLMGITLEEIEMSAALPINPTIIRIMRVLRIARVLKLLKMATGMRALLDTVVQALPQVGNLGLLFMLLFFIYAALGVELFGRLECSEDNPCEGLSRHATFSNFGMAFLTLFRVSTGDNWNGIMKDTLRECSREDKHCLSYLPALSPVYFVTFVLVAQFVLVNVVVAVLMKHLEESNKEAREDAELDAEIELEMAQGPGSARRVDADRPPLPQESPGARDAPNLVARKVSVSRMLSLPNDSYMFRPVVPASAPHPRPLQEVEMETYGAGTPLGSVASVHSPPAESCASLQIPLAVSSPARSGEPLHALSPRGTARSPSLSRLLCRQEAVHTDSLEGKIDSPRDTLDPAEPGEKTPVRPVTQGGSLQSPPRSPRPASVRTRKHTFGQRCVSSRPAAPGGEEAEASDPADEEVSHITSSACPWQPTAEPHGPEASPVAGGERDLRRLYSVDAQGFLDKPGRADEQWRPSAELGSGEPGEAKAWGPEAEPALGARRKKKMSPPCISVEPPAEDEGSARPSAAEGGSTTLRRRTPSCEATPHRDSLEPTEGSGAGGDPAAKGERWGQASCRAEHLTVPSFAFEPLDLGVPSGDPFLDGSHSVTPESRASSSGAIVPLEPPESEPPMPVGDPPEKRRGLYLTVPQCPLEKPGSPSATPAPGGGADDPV
Briefly: Whole-cell voltage clamp of Cav3.2 current in transfected HEK293 cells. The format is cell-based. The procedure: (§1) 1. Preparation before transfection: A flask of HEK293 cell culture was removed of the culture medium, and gently washed twice by adding 3 ml of a phosphate buffer. Then, the cells were digested by adding 1 ml of 0.25% trypsin, and pipetted by adding DMEM medium after 3-5 min to collect the cells. The cells were centrifuged at 1000 rpm for 5 min, and the supernatant was discarded. 5-10 ml of DMEM medium was added to suspend the cells. The cells were slowly pipetted again, then subcultured in a 35 mm petri dish covered with glass slides, and transfected after 24 h.
(§2) 2. Transfection: The cells were transfected by liposome transfection, where the transfection reagent was Lipofectamine 3000, and the materials used: Cav3 plasmid 1.5 μg, transfection enhancement factor (TAG) 0.25 μg, and enhanced green fluorescent protein (EGFP) 0.1 μg. 48-72 h after transfection, the whole-cell patch clamp technique was used to record fluorescent HEK293 cells, with 9-12 cells per group.
(§3) The base sequences of Cav3.1, Cav3.2 and Cav3.3 plasmids were verified by gene sequencing and confirmed by DNA Star sequence analysis and alignment software that they are respectively consistent with the sequence Nos. NM_198376.3 (Cav3.1), NM_021098.3 (Cav3.2) and NM_021096.4 (Cav3.3) published in the NCBI database.
(§4) At room temperature, Multiclamp700B amplifier was used for whole-cell voltage clamp recording. The glass electrode was a drawn electrode, and the resistance of the electrode filled with intracellular fluid was 3-5 MΩ. DigiData1322A was converted into a digital signal in pClamp10.2 software. The series resistance compensation was 70-80%. The stimulating square wave was depolarized to −30 mV with a clamping voltage of −90 mV, and then returned to the clamping potential level. The current amplitude of the T-type calcium channel at this time was recorded.
(§5) Internal pipette solution: 110 cesium chloride, 4 magnesium-ATP, 0.3 sodium-GTP, 25 HEPES, 10 EGTA. External pipette solution: 5 barium chloride, 140 tetraethylamine chloride, 5 cesium chloride, 0.5 magnesium chloride, 5.5 glucose, 10 HEPES. […]

Experiment [6] deals with T2, T-type calcium channel subtype Cav3.3 (Homo sapiens, UniProt Q9P0X4).
T2 construct: expressed in transfected cells; host or cells: HEK293 cells
Nature of the experiment: Whole-cell voltage clamp of Cav3.3 current in transfected HEK293 cells. The class given is cell-based. Conditions: 10 μM miloxacin, step -90 mV to -30 mV. The procedure: as §1
2. Transfection: The cells were transfected by liposome transfection, where the transfection reagent was Lipofectamine 3000, and the materials used: Cav3 plasmid 1.5 μg, transfection enhancement factor (TAG) 0.25 μg, and enhanced green fluorescent protein (EGFP) 0.1 μg. 48-72 h after transfection, the whole-cell patch clamp technique was used to record fluorescent HEK293 cells, with 9-12 cells per group. […]
At room temperature, Multiclamp700B amplifier was used for whole-cell voltage clamp recording. […] The current amplitude of the T-type calcium channel at this time was recorded. […]

In experiment [7] the target is T3, T-type calcium channel subtype Cav3.1 (Homo sapiens, UniProt O43497).
T3 construct: expressed in transfected cells; host or cells: HEK293 cells
T3 sequence (O43497 1-2171 isoform O43497-5): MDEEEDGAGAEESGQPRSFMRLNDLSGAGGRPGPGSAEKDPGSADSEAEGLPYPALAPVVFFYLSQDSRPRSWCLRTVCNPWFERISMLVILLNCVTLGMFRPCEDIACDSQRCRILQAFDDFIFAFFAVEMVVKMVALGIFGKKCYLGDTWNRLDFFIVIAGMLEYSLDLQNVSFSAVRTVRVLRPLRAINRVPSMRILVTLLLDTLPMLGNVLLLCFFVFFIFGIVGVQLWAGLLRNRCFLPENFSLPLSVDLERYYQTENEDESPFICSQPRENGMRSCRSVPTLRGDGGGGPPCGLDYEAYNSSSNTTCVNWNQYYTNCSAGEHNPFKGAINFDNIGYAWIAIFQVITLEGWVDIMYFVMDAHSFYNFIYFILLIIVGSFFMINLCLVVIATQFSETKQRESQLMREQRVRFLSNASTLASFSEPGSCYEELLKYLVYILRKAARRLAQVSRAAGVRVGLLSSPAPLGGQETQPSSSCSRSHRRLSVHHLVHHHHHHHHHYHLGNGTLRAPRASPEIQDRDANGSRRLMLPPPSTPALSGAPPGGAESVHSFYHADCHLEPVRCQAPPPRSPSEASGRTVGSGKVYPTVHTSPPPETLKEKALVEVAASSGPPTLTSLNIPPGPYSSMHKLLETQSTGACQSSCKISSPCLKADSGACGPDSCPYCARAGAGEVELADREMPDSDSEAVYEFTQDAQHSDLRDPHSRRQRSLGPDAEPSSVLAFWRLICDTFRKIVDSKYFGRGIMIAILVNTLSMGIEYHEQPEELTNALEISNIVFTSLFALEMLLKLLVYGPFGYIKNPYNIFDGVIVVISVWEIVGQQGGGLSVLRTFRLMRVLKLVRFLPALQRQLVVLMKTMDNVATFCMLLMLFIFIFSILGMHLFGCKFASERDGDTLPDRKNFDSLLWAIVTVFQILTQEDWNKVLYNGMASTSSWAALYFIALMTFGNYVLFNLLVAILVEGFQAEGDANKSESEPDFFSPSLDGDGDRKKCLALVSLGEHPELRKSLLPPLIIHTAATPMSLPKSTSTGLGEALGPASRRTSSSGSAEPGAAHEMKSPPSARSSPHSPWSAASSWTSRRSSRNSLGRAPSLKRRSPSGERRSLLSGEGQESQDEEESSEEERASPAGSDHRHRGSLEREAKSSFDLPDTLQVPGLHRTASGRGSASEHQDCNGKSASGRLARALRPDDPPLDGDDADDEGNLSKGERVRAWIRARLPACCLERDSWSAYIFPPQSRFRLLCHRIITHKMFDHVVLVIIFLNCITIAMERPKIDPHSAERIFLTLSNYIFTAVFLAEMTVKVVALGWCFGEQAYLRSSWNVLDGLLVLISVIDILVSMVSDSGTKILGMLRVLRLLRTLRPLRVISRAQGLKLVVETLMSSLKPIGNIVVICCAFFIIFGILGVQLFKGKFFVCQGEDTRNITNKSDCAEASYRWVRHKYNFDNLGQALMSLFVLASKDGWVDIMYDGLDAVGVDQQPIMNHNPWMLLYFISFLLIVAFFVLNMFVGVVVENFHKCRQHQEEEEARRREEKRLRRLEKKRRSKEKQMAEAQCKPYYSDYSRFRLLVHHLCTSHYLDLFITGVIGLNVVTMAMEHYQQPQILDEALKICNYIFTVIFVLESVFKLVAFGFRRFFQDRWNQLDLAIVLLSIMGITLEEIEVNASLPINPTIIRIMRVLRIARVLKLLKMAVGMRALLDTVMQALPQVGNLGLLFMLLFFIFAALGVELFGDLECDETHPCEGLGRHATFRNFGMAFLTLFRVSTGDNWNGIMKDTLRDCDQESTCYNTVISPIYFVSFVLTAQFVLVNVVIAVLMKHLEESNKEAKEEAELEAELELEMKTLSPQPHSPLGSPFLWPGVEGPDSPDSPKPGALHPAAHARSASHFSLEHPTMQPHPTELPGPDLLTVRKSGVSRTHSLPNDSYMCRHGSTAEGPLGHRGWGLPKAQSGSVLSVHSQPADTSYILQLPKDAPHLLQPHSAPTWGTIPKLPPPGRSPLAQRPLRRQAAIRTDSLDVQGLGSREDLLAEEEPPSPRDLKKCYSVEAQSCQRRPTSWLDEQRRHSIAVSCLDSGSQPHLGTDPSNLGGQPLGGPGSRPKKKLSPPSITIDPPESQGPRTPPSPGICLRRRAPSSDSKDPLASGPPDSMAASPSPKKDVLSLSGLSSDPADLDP
Briefly: Whole-cell voltage clamp of Cav3.1 current in transfected HEK293 cells. The class given is cell-based. The procedure: as §1, §2, §3, §4, §5

Experiment [8] deals with normal rats. Nature of the experiment: Facial pain threshold of normal rats (von Frey). The format is in vivo, rat. The settings on record: 10 nmol injected into trigeminal ganglion, vs. solvent group. The procedure:
Before the behavioral test, the rats were housed in a plexiglass box on a wire mesh frame to acclimate to the environment for three consecutive days, for 1 h each time. Test method: The middle part of the whisker pad was stimulated with von Frey filament at 1 g. If there were 3 escapes in 5 consecutive stimulations, the response was positive. Then, the same operation was repeated with von Frey filament at a lower level of intensity. If there was no positive response, the middle part of the whisker pad was stimulated with von Frey filament at a higher level of intensity. The minimum intensity at which a positive response occurs is taken as the facial pain threshold, that is, the facial mechanical pain threshold. • 1. Effect of miloxacin on the facial pain threshold of normal rats (without CFA induction): 20 normal rats were divided into two groups, each having 10 rats. The first group was a solvent group, and the second group was a treatment group. 10 nmol miloxacin was injected into the trigeminal ganglion of the second group of rats, and the corresponding solvent DMSO was injected into the trigeminal ganglion of the first group of rats.

[9] abbreviates: 2 nmol local injection into trigeminal ganglion.
Where [10] appears, read: 5 nmol local injection into trigeminal ganglion.
[11] abbreviates: 10 nmol local injection into trigeminal ganglion.
Where [12] appears, read: 10 nmol miloxacin 30 min after 2 nmol TTA-P2, trigeminal ganglion.
Setting [13] is: 10 μM miloxacin, step -90 mV to -30 mV.

For `CC1(C)C[C@@H](CN2CCC(F)(CNC(=O)c3cc(Cl)cc(Cl)c3)CC2)CCO1` [TTA-P2, 3,5-dichloro-N-[[4-fluoro-1-[[(4S)-tetrahydro-2,2-dimethyl-2H-pyran-4-yl]methyl]-4-piperidine]methyl]benzamide], in experiment [1] (setting [9]), the “effect of TTA-P2 on facial pain threshold, CCI-ION model” value is listed as “can increase the facial pain threshold”. In experiment [2] (setting [9]), the “effect of TTA-P2 on facial pain threshold, CFA model” value is recorded as “can increase the facial pain threshold”.

One may read the IC50 as the concentration needed to halve the response being measured. Regarding `COn1cc(C(=O)O)c(=O)c2cc3c(cc21)OCO3` [miloxacin], in experiment [3] (10 μM miloxacin), the “T-type calcium channel current reduced compared to control” value is 52.7±2.6%. In addition, the IC50 in experiment [3] (dose-effect curve) is 7.7 ± 0.6 µM; in experiment [5] (dose-effect curve) it was 8.2 ± 0.6 µM; in experiment [7] (dose-effect curve), 6.5 ± 0.9 µM. Moreover, the “action potential (number in a 1-sec stimulation course)” value in experiment [4] turned out to be 6.1±0.3. Moreover, the “effect on facial pain threshold (mechanical hyperalgesia), CCI-ION model” value in experiment [1] (setting [10]) and in experiment [1] (setting [11]) was “significantly reversed mechanical hyperalgesia” throughout. Also, in experiment [1] (setting [12]), the “effect of miloxacin after TTA-P2 on facial pain threshold, CCI-ION model” value was “does not further increase the facial pain threshold”. In addition, the “effect on facial pain threshold (mechanical hyperalgesia), CFA model” value in experiment [2] (setting [10]) and in experiment [2] (setting [11]) was “significantly reversed mechanical hyperalgesia” each time. Also, the “effect of miloxacin after TTA-P2 on facial pain threshold, CFA model” value in experiment [2] (setting [12]) was “does not further increase the facial pain threshold”. The “inactivation constant V1/2 of subtype Cav3.2, left shift” value in experiment [5] (10 μM miloxacin vs. control) is listed as 8.5±0.3 mV. For the same compound, in experiment [5] (setting [13]), the “subtype Cav3.2 current reduced compared to control” value was 57.2±3.3%. Also, in experiment [6], the “subtype Cav3.3 current reduced compared to control” value amounted to 2.1±0.7%. In experiment [7] (10 μM miloxacin vs. control), the “inactivation constant V1/2 of subtype Cav3.1, left shift” value was found to be 6.5±0.7 mV. Besides, the “subtype Cav3.1 current reduced compared to control” value in experiment [7] (setting [13]) was 49.6±2.9%. For the same compound, the “effect on facial pain threshold of normal rats” value in experiment [8] is “does not affect the facial pain threshold”.
